Structures can show the parent of a compound that is named as a salt.

The melting point is the temperature, or range, at which the solid turns liquid. One may read the IC50 as the concentration that gives 50% inhibition.

The subject of data set [1] is HFF (human foreskin fibroblasts). Put plainly: MTT proliferation assay, 72 h, non-tumor cells. In kind it is cell-based. The arrangement: selectivity index (SI): reference not given here. On the procedure: (§1) The cell lines HeLa (cervical carcinoma), SW620 (colorectal adenocarcinoma, metastatic), A549 (lung adenocarcinoma), HepG2 (hepatocellular carcinoma) and HFF (human foreskin fibroblasts) were cultured as monolayers and maintained in Dulbecco’s modified Eagle medium (DMEM), supplemented with 10% fetal bovine serum (FBS), 2mM L-glutamine, 100 U/mL penicillin and 100 μg/mL streptomycin in a humidified atmosphere with 5% CO2 at 37 °C.
(§2) Cells were seeded onto 96-well microtiter plates at a seeding density of 3000 cells/well for carcinoma cell lines, and 5000 cells/well for normal human fibroblasts. The next day, cells were treated with test agents at five different concentrations (0.01–100 µM) and further incubated for 72 h. […] Following 72 h incubation, the MTT assay was performed and measured absorbances were transformed into percentage of cell growth as described previously. Results were obtained from three independent experiments.
For orientation: Tetrazolium dyes change colour on reduction, which living cells bring about.

Data set [2] concerns A549 (lung adenocarcinoma). Put plainly: MTT proliferation assay, 72 h. The class given is cell-based. Particulars: Homo sapiens, A549 cells. As to the method: as §1, §2
In data set [3] the test system is HepG2 (hepatocellular carcinoma). Nature of the data set: MTT proliferation assay, 72 h. In kind it is cell-based, human. Particulars: Homo sapiens; HepG2 cells, MTT, 72 h. As to the method:
as §1, §2

Data set [4] deals with SW620 (colorectal adenocarcinoma, metastatic). Put plainly: MTT proliferation assay, 72 h. In kind it is cell-based, human. Particulars: Homo sapiens, SW-620; SW620 cells, MTT, 72 h. As to the method:
as §1, §2

Data set [5] concerns HeLa (cervical carcinoma). Nature of the data set: MTT proliferation assay, 72 h. The class given is cell-based, human. Particulars: Homo sapiens; HeLa cells, MTT, 72 h. On the procedure:
as §1, §2

Regarding `Cl.Cl.c1cc(C2=NCCN2)ccc1NCc1cn(-c2ccc(C3=NCCN3)cc2)nn1` [Compound 4, 1-(4-(4,5-Dihydro-1H-imidazol-2-yl)-phenyl)-4-((4-(4,5-dihydro-1H-imidazol-2-yl)phenyl)aminomethyl)-1H-1,2,3-triazole dihydrochloride], the melting point is > 250 °C. Further, in data set [1] (normal HFF fibroblasts versus tumor cells), the “selectivity index (SI)” value was determined as 2. Besides, inhibition in data set [2] was half-maximal at 46.7 µM (IC50). In data set [3], 48.9 µM corresponded to half-maximal inhibition (IC50). The same compound had an IC50 in data set [4] of 61.9 µM. Moreover, in data set [5], it took 41.2 µM to reach half-maximal inhibition (IC50).

For `N/C(=N\O)c1ccc(-n2cc(COc3ccc4ccc(=O)oc4c3)nn2)cc1` [Compound 22, 7-((1-(4-((Z)-N′-Hydroxycarbamimidoyl)phenyl)-1H-1,2,3-triazol-4-yl)methoxy)coumarin], the melting point lay within 232 to 235 °C. In data set [2], the IC50 was > 100 µM. The midpoint of inhibition in data set [3], the IC50, lay at 91.4 µM. For the same compound, the 50% inhibitory concentration (IC50) in data set [4] is > 100 µM. It took 87.4 µM to reach half-maximal inhibition in data set [5] (IC50).

Take `N#Cc1ccc2c(ccn2Cc2cn(-c3ccc(/C(N)=N/O)cc3)nn2)c1` [Compound 16, 1-((1-(4-((Z)-N′-Hydroxycarbamimidoyl)phenyl)-1H-1,2,3-triazol-4-yl)methyl)-5-cyanoindole]: the IC50 in data set [2], in data set [3], in data set [4] and in data set [5] was > 100 µM each time.

As to `N/C(=N\O)c1ccc(-n2cc(CNc3cccc4cccnc34)nn2)cc1` [Compound 18, 8-(((1-(4-((Z)-N′-Hydroxycarbamimidoyl)phenyl)-1H-1,2,3-triazol-4-yl)methyl)amino)quinoline], the IC50 in data set [1] (Homo sapiens, Fibroblast, non-tumor HFF fibroblasts, MTT, 72 h) is 9.81 µM; in data set [2], 6.52 µM; in data set [3] it was > 100 µM; in data set [5], 25.6 µM.

In the case of `N#Cc1ccc(NCc2cn(-c3ccc(/C(N)=N/O)cc3)nn2)cc1` [Compound 12, 4-(((1-(4-((Z)-N′-Hydroxycarbamimidoyl)phenyl)-1H-1,2,3-triazol-4-yl)methyl)amino)benzonitrile], the melting point is 222 to 225 °C. Also, the 50% inhibitory concentration (IC50) in data set [2] was > 100 µM. In addition, in data set [3], the 50% inhibitory concentration (IC50) was > 100 µM. This compound yielded a half-inhibitory concentration (IC50) in data set [4] of 65.1 µM. For the same compound, the 50% inhibitory concentration (IC50) in data set [5] was > 100 µM.

In the case of `N/C(=N\O)c1ccc(-n2cc(COc3cccc4cccnc34)nn2)cc1` [Compound 19, 8-((1-(4-((Z)-N′-Hydroxycarbamimidoyl)phenyl)-1H-1,2,3-triazol-4-yl)methoxy)quinoline], the melting point was in the range of 230 to 232 °C. This compound yielded an IC50 in data set [2] of 76.7 µM. The IC50 in data set [3] is > 100 µM. In data set [4], this compound had an IC50 of 72.7 µM. Also, 64.5 µM corresponded to half-maximal inhibition in data set [5] (IC50).

Regarding `c1cc(C2=NCCN2)c2ccn(Cc3cn(-c4ccc(C5=NCCN5)cc4)nn3)c2c1` (as salt: hydrochloride) [Compound 6, 1-((1-(4-(Dihydro-1H-imidazol-2-yl)phenyl)-1H-1,2,3-triazol-4-yl)methyl)-4-(dihydro-1H-imidazol-2-yl)-1H-indole dihydrochloride], the melting point was > 250 °C.

With `O=c1[nH]cc(F)c(=O)[nH]1` [Compound 5-FU, 5-Fluorouracil, reference compound], the 50% inhibitory concentration (IC50) came out at 2.8 µM in data set [2], 0.08 µM in data set [4] and 8.81 µM in data set [5].

Take `N#Cc1cccc2c1ccn2Cc1cn(-c2ccc(/C(N)=N/O)cc2)nn1` [Compound 14, 1-((1-(4-((Z)-N′-Hydroxycarbamimidoyl)phenyl)-1H-1,2,3-triazol-4-yl)methyl)-4-cyanoindole]: the concentration for half-maximal inhibition (IC50) is > 100 µM in data set [2], > 100 µM in data set [3], > 100 µM in data set [4] and 65.8 µM in data set [5].

With `N/C(=N\O)c1ccc(OCc2cn(-c3ccc(/C(N)=N/O)cc3)nn2)cc1` [Compound 13, (Z)-N′-Hydroxy-4-(4-((4-((Z)-N′-hydroxycarbamimidoyl)phenoxy)methyl)-1H-1,2,3-triazol-1-yl)benzimidamide], the melting point lay within 218 to 221 °C. Further, the IC50 in data set [2] is > 100 µM. Further, the IC50 in data set [3] is > 100 µM. In data set [4], the half-maximal inhibitory concentration (IC50) was > 100 µM. Further, the IC50 in data set [5] is > 100 µM.

`N/C(=N\O)c1ccc(-n2cc(COc3cc(=O)oc4ccccc34)nn2)cc1` [Compound 21, 4-((1-(4-((Z)-N′-Hydroxycarbamimidoyl)phenyl)-1H-1,2,3-triazol-4-yl)methoxy)coumarin] had a melting point of 235 to 237 °C. Also, the IC50 in data set [2] was > 100 µM. The IC50 in data set [3] was > 100 µM. Also, in data set [4], the IC50 is > 100 µM. The same compound displayed an IC50 in data set [5] of 99.7 µM.

Take `N/C(=N\O)c1ccc(-n2cc(Cn3ccc4cc(/C(N)=N/O)ccc43)nn2)cc1` [Compound 17, (Z)-N′-hydroxy-1-((1-(4-((Z)-N′-hydroxycarbamimidoyl)phenyl)-1H-1,2,3-triazol-4-yl)methyl)-indole-5-carboximidamide]: the melting point was 232 to 234 °C. The IC50 in data set [2] was > 100 µM. Also, the half-maximal inhibitory concentration (IC50) in data set [3] was > 100 µM. In data set [4], the half-maximal inhibitory concentration (IC50) is > 100 µM. Moreover, inhibition in data set [5] was half-maximal at 60.7 µM (IC50).

As to `c1cc(-n2cc(Cn3ccc4cc(C5=NCCN5)ccc43)nn2)ccc1C1=NCCN1` (as salt: hydrochloride) [Compound 7, 1-((1-(4-(Dihydro-1H-imidazol-2-yl)phenyl)-1H-1,2,3-triazol-4-yl)methyl)-5-(dihydro-1H-imidazol-2-yl)-1H-indole dihydrochloride], the melting point was 228 to 231 °C.

For the compound `c1cc(-n2cc(Cn3ccc4cc(C5=NCCN5)ccc43)nn2)ccc1C1=NCCN1` [Compound 7, 1-((1-(4-(Dihydro-1H-imidazol-2-yl)phenyl)-1H-1,2,3-triazol-4-yl)methyl)-5-(dihydro-1H-imidazol-2-yl)-1H-indole dihydrochloride], the IC50 is > 100 µM in data set [2], 69.1 µM in data set [3], 49.8 µM in data set [4] and > 100 µM in data set [5].

`N/C(=N\O)c1ccc(-n2cc(Cn3ccc4c(/C(N)=N/O)cccc43)nn2)cc1` [Compound 15, (Z)-N′-hydroxy-1-((1-(4-((Z)-N′-hydroxycarbamimidoyl)phenyl)-1H-1,2,3-triazol-4-yl)methyl)-1H-indole-4-carboximidamide]: the melting point lay within 229 to 232 °C. The concentration for half-maximal inhibition (IC50) in data set [2] was > 100 µM. Also, in data set [3], the IC50 is > 100 µM. Moreover, the IC50 in data set [4] was > 100 µM. Moreover, the IC50 in data set [5] was > 100 µM.
